Data: US11197828B2, “Solid oral dosage form of lipophilic compounds” (SOLURAL PHARMA APS, priority 2014, dated 2021)
Marks after values point to notes of the source that are not given here.

What was measured:
[1] = cited from earlier work
[2] = oral 60 mg paclitaxel equivalents/animal, fasted male beagle dogs (N = 4)
Description: (§1) The study was a randomized, balanced, single dose, parallel group study in Beagle dogs comparing pharmacokinetics in fasted state of capsules containing C11-paclitaxel and DHA-paclitaxel, respectively in SEDDS formulation S2 (see Table 1).
(§2) The strength of each capsule was 12.5 mg of paclitaxel equivalents for the C-11 paclitaxel capsule and 10 mg of paclitaxel equivalents for the DHA-paclitaxel. The total oral dosage provided was 75 mg calculated as parent compound for paclitaxel and C11-paclitaxel, respectively and 60 mg calculated as parent compound for DHA-paclitaxel.
(§3) The dogs were deprived of food from late afternoon the day prior dosing. The capsule was put directly on the aditus laryngis of the dog to ensure that the capsule is not chewed but swallowed whole. All dogs received totally 100 ml of water immediately following the dosing.
(§4) Blood samples (approximately ˜0.5 mL) were taken from each animal at each dosing occasion on 10 time points up to 24 hours after dosing including a pre-dose.
(§5) The pharmacokinetic parameters calculated are i.e. total exposure, or area under the concentration-time curve (AUC0-inf, AUC0-t), peak exposure (Cmax), time to peak exposure (Tmax), terminal half-life t1/2 and the conversion rate from prodrug to parent.

in vivo = settings: male, beagle, dog, blood, po, 75 mg
Description: as §1, §2, §3, §4, §5

[3] = excessive first pass metabolism; cited from earlier work

In the case of `CC(=O)O[C@H]1CC[C@@]2(C)C(=CC[C@@H]3[C@@H]2CC[C@]2(C)C(c4cccnc4)=CC[C@@H]32)C1` [Abiraterone acetate], the “log P” value [1] is listed as 5.1.

In the case of `C[C@@H](O)[C@@H]1NC(=O)[C@H](CCCCN)NC(=O)[C@@H](Cc2c[nH]c3ccccc23)NC(=O)[C@H](Cc2ccccc2)NC(=O)[C@@H](NC(=O)[C@H](N)Cc2ccccc2)CSSC[C@@H](C(=O)N[C@H](CO)[C@@H](C)O)NC1=O` [Octreotide], the “log P” value [1] is listed as “around 1”.

For `CC/C=C\C/C=C\C/C=C\C/C=C\C/C=C\C/C=C\CCC(=O)O[C@@H](C(=O)O[C@H]1C[C@@]2(O)[C@@H](OC(=O)c3ccccc3)[C@@H]3[C@]4(OC(C)=O)CO[C@@H]4C[C@H](O)[C@@]3(C)C(=O)[C@H](OC(C)=O)C(=C1C)C2(C)C)[C@@H](NC(=O)c1ccccc1)c1ccccc1` [Paclitaxel-DHA, paclitaxel docosahexaenoate], the “AUC0-t(parent)/AUC0-t(prodrug)” value ([2]; conversion prodrug to parent) was 22.3%, the “AUC0-t of paclitaxel (parent)” value [2] was 73.3 ng·h/mL and the AUC0-t of prodrug [2] was 402^e) hr * ng/mL. The “AUC0-∞ of paclitaxel (parent)” value [2] was 97.2 ng·h/mL, the “AUC0-∞ of prodrug” value [2] was 643^f) hr * ng/mL and the “Cmax of paclitaxel (parent)” value [2] was 10.4 ng/mL. The Cmax of prodrug [2] was 63.8^d) ng/mL, the “Tmax of paclitaxel (parent)” value [2] was 2.25 h and the Tmax of prodrug [2] was 4.50 h. For the same compound, the “t1/2 of paclitaxel (parent)” value [2] was 11.6 h and the t1/2 of prodrug [2] was 6.33 h.

In the case of `CC(=O)O[C@H]1C(=O)[C@@]2(C)[C@H]([C@H](OC(=O)c3ccccc3)[C@]3(O)C[C@H](OC(=O)[C@H](O)[C@@H](NC(=O)c4ccccc4)c4ccccc4)C(C)=C1C3(C)C)[C@]1(OC(C)=O)CO[C@@H]1C[C@@H]2O` [Paclitaxel], the AUC(0-inf) (in vivo) was 973 ng·h/mL, the AUC(0-t) (in vivo) was 771 ng·h/mL and the Cmax (in vivo) was 148 ng/mL. It also gave a Tmax (in vivo) of 2.5 h and a half-life (in vivo) of 13.7 h.

For `CCCCCCCCCCC(=O)O[C@H]1CC[C@H]2[C@@H]3CCC4=CC(=O)CC[C@]4(C)[C@H]3CC[C@]12C` [Testosterone undecanoate], the “log P” value [1] is given as “about 8.7”.

For `CC(C)c1cccc(C(C)C)c1O` [propofol, 2,6-diisopropylphenol], the oral bioavailability [3] is given as ≤ 3%.
